# Experimental data reported in patent US20260029420A1, “ANTI-CB2 ANTIBODIES AND THEIR USE IN A FLOW CYTOMETRY ASSAY TO MEASURE CELL SURFACE CB2 EXPRESSION” (Hoffmann-La Roche Inc., priority 2022, published 2026).
# Values joined by “and” are separate entries in the source; they are usually repeats but may differ in a detail not shown here. Equal entries are not always repeated.
# How the values were obtained:
# [1] = target: T1, CB2 (Homo sapiens, UniProt P34972); test: CB2 internalization flow cytometry assay in whole blood of working-age healthy participants; type: cell-based; settings: for IC50: B-cells
# T1 construct: measured in whole blood samples from nine different healthy human volunteers of working-age; endogenous in cells; host or cells: B-cells (and basophils and other leukocytes) in human whole blood
# Description: FIG. 7: IC50 determination for CB2 internalization on B-cells in response to RG7774 in whole blood of healthy participants. Human whole blood was incubated with RG7774 for 1 hour at 37° C. followed by incubation with the anti-human CB2 antibody 1/622. The expression of CB2 on the surface of B-cells was analyzed using a lineage marker mix specific for B-cells (CD45^+ CD3^− CD14^− CD19^+) and T-cells (CD45^+ CD3^+ CD14^−). The B/T-cell CB2 MFI ratio was calculated and normalized to baseline. 0 μM was set as 100% baseline receptor expression.
# The CB2 is member of the G-protein coupled receptor family which upon ligand (agonist) binding can respond by internalization of the receptor into the endosomal compartment of the cell, thereby removing the respective receptor form the cell surface and initiating downstream signaling effects (Calebiro, D. et al. Best Pract Res Clin Endocrinol Metab 2018:32 (2):83-91). Such changes in cell surface expression of CB2 on B-cells in response to the treatment with the CB2 agonist RG7774 were measured in whole blood samples from nine different healthy human volunteers of working-age. Whole blood samples were treated with eight compound concentrations in duplicates to determine IC50 of RG7774 using a newly developed flow cytometry assay.
# Na-Heparin whole blood samples were incubated in a 96-well plate with RG7774 for 1 hour at 37° C. in a humidified incubator with 5% CO2. Samples were harvested from the 96-well plate and 100 μl were transferred to labeled 5 ml Polystyrene Round Bottom Tubes (Becton Dickinson, Cat #352052). The unlabeled anti-CB2 antibody clone 1/622 was diluted to 50μg/ml with cell staining buffer (BioLegend, Cat #420201). 100 μl diluted anti-CB2 antibody was added to each tube and incubated for 30 minutes at 4° C. For the red blood cell lysis 10× BD PharmLyse lysing buffer (Becton Dickinson, Cat #55899) was diluted to 1× with distilled water and prewarmed to approximately 20° C. After the CB2 antibody incubation 2 ml of prewarmed 1× BD PharmLyse lysing buffer was added to each tube, mixed and incubated for 15 minutes at approximately 20° C. After the incubation, the tubes were centrifuged for 5 minutes at 250×g and 4° C. The supernatant was removed completely, cells were washed two times with cold cell staining buffer and supernatant removed completely after the centrifugation. Human FcR Blocking Reagent (Miltenyi Biotech, Cat #130-059-901) was diluted according to the package insert instructions with cold cell staining buffer. To each sample 50 μl was added, mixed and incubated for 10 minutes at 4° C. The secondary antibody Goat F(ab′)2 Anti-Mouse IgG3 PE (Southern Biotech, Cat #1102-09) was diluted 1:25 in cold cell staining buffer. To each sample 50 μl was added, mixed and incubated for 30 minutes at 4° C. in the dark. […]
# For determination of cell surface expression of CB2 on B-cells, median fluorescent intensity (MFI) was analyzed by gating around the CD45^+ CD3^− CD14^− CD19^+ B-cells (see gating strategy in FIG. 6A to FIG. 6E) and acquiring a minimum of 2000 events in this gate (FIG. 6F). With the lineage marker mix other cell populations like T-cells (CD45^+ CD3^+ CD14^−), Monocytes (CD45^+ CD3^− CD14^+), Basophils (CD45^+ CD3^− CD14^− CD19^− CD193^+ IgE^+), NK cells (CD45^+ CD3^− CD14^− CD19^− CD193^− IgE^− CD16^+ CD56^+), Eosinophils (CD45^+ CD16^−) and Neutrophils (CD45^+ CD16^+) could be analyzed.
# [2] = target: CB2 (Macaca fascicularis, UniProt G7NVV5); test: In vivo CB2 internalization on B-cells upon oral dosing in Cynomolgus monkeys; parameters: species or system Cynomolgus monkey
# Description: FIG. 11: In vivo feasibility for the new CB2 flow cytometry assay to monitor pharmacodynamic response in vitro on B-cells upon oral dosing. Six healthy Cynomolgus monkeys were dosed with three different doses of an oral micro suspension of RG7774 with two animals per dose group. Blood drawn at different time points was incubated with the anti-human CB2 antibody 1/622. The expression of CB2 on the surface of B-cells was analyzed using a lineage marker mix specific for B-cells and T-cells. The B/T-cell CB2 MFI ratio was calculated and normalized to baseline. 0 μM served as 100% baseline receptor expression. For the animal Mina, blood samples could only be taken up to 1 hour after experimental start, since the animal had to be remove of the study due to a rectal prolapse.
# FIG. 12: Single dose in vivo study monitoring the pharmacodynomic effect of RG7774 on CB2 expression on B-cells in Cynomolgus upon oral dosing. Three healthy cynomolgus monkeys were dosed with 100 mg/kg of the CB2 agonist RG7774. The blood draw at different time points was followed by the incubation with the anti-human CB2 antibody 1/622. The expression of CB2 on the surface of B-cells was analyzed using a lineage marker mix specific for B-cells and T-cells. The B/T-cell CB2 MFI ratio was calculated and normalized to baseline. 0 μM served as 100% baseline receptor expression. […] Due to a storage effect of the antibody working dilution (5 μg/sample) of the anti-human CB2 Ab 1/622 the 4 and 7 hours' time point have been excluded. The working dilution of this antibody is only stable for 2 hours on ice.
# The feasibility of applying the newly developed CB2 flow cytometry assay as an assay to monitor pharmacodynamic response to oral doses of RG7774 was evaluated in three groups of two Cynomolgus monkeys. Upon oral administration of three different single doses of a micro suspension of 0.5, 5 and 100 mg/kg RG7774 respectively, blood samples from all animals were taken at the selected time points: 0 (pre-dose) and 0.25, 0.5, 1, 2, 4, 7 and 24 h post dosing and subjected to the CB2 flow cytometry analysis (FIG. 11).
# In this in vivo cyno study three cynomolgus monkeys were orally dosed with 100 mg/kg of RG7774. Blood sampling for TE-assay was performed at selected time points: −96, −24 (both time points not shown), 0 (predose) and 0.25, 0.5, 1, 2, 4, 7, 24, 31, 48 and 72 hours post-dosing (FIG. 12).
# CB2 (Macaca fascicularis, UniProt G7NVV5), sequence (G7NVV5 1-360): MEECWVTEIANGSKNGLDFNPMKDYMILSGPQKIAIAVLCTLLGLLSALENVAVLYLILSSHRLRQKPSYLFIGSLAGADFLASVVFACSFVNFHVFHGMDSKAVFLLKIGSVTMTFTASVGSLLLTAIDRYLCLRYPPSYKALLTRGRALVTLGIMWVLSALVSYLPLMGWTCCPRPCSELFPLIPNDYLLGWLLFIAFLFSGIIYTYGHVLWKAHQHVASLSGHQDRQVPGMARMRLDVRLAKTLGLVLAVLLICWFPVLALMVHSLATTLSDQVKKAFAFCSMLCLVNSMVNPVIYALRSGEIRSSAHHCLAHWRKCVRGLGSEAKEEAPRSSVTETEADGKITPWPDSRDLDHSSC
# T1 sequence (P34972 whole entry): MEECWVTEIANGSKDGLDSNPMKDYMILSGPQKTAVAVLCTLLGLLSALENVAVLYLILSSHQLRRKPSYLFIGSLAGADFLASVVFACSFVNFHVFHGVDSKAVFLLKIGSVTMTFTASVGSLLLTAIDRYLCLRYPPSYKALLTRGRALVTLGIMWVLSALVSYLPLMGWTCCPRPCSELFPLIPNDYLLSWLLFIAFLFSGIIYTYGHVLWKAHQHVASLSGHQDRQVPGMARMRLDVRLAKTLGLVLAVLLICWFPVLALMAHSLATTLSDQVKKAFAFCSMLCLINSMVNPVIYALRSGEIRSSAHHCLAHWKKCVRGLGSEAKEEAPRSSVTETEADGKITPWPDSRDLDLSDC
smiles,measurement,setting,value
"Cn1nnnc1Cn1nnc2c(N3CC[C@H](O)C3)nc(C(C)(C)C)nc21 [RG7774, (S)-1-[5-tert-Butyl-3-(1-methyl-1H-tetrazol-5-ylmethyl)-3H-[1,2,3]triazolo [4,5-d]pyrimidin-7-yl]-pyrrolidin-3-ol]",reduction of the CB2 cell surface expression,[1]; Basophils (data not shown),can also be detected
same,Fold change vs HPs of mean IC50 (CB2 on B-cells),"[1]; Healthy Participants (working-age), reference group",1
same,IC50,"[1]; IC50, individual working-age healthy donors, whole blood 1 hour 37° C., B/T-cell CB2 MFI ratio",0.125 µM and 0.0816 µM and 0.0647 µM and 0.0867 µM and 0.0643 µM and 0.144 µM
same,IC50,"[1]; Individual IC50 values, range over donors, healthy human participants",0.0643 to 0.144 µM
same,reduction of the CB2 cell surface expression,"[1]; T-cells, Monocytes, NK-cells, Eosinophils and Neutrophils (data not shown)",has not been observed
same,onset of pharmacodynamic effect on CB2 surface expression on B-cells,[2]; 100 mg/kg oral,≤ 15 min
same,duration of reduction of CB2 expression on B-cells,"[2]; single oral doses 0.5, 5 and 100 mg/kg",around 24 hours
same,reduction relative to individual baseline CB2 expression on B-cells,"[2]; single oral doses 0.5, 5 and 100 mg/kg micro suspension",dose dependent reduction
same,responder status in vivo,"[2]; three cynomolgus monkeys, 100 mg/kg oral",One out of three cynos is a non-responder
